The source of these data is patent publication EP0003920A1, “Thieno (3,2-c)- and thieno (2,3-c)pyridines, process for their preparation and their therapeutical application” (OMNIUM FINANCIER AQUITAINE POUR L'HYGIENE ET LA SANTE - …, priority 1978, dated 1979).

Series [1] relates to rat. The series is described as follows: Anticonvulsant action against electroshock. The following applies: 100 mg/kg oral, electroshock 30 min after treatment, score 0 to 4, untreated controls 4. It counts as in vivo. As to the method:
Cette action a été étudiée vis-à-vis des électrochocs. L'application chez le rat d'une stimulation électrique supérieure au seuil électro-convulsivant provoque des convulsions expérimentales. On compare alors chez les animaux témoins et chez les animaux traités, à la fois la présence et la durée de chacune des phases convulsives et l'intensité de la crise dans son ensemble.
On établit des séries de 10 rats par produit à tester et on administre par la voie orale, à chaque animal, 100 mg/kg de ce produit.
De chaque côté de la base de la queue de chaque […], une électrode Cat mise en place et 30 minutes après le traitement, l'animal placé dans une enceinte de verre reçoit pendant 50 millisecondes un courant sinusoïdal de 50 périodes/secondes de 120 volts.
Le passage du courant déclenche une crise convulsive dont chacune des phases (tonique, clonique, relachement musculaire) est chronométrée. L'intensité de la crise est alors notée de 0 à 4 selon la présence de chacune des phases et leur durée. Les produits de l'invention sont testés comparativement au phénobarbital qui possède une action anti-convulsivante marquée (intensité de la crise = 2), alors que chez les animaux témoins non traités c'est l'intensité maxima de 4 qui est obtenue.

In series [2] the test system is rat. The series is described as follows: Generalised ovalbumin oedema. The series is classed as in vivo. The following applies: po, 100 mg/kg per os 1 h before and together with ovalbumin. As to the method:
Une injection intrapéritonéale simultanée de 1 ml d'ovalbumine et de 0,5 ml d'une solution aqueuse de bleu Evans à 1% est effectuée sur le rat. D'autre part, on administre per os aux animaux du lot traité 100 mg/kg du dérivé à tester une heure avant et en même temps que l'ovalbumine. L'intensité du phénomène ainsi provoqué est notée par un chiffre allant de 1 à 5 suivant la progression du syndrome inflammatoire. On détermine ainsi la moyenne de l'intensité oedémateuse et le pourcentage de diminution de la réaction oedémateuse par rapport au témoin, en fonction du temps.

The nature of series [3]: Acute toxicity, intravenous LD50 (method of Miller and Tainter). The settings on record: mouse, in vivo, read-out: DL50/24 H/kg de poids corporel. On the set-up: species or system souris. As to the method:
En ce qui concerne la toxicité aigüe, la DL50/24 H/kg de poids corporel, déterminée chez la souris selon la méthode de Miller et Tainter pour la voie orale est supérieure à 400 mg pour tous les dérivés.
Selon la même méthode, la DL50/24 H/kg de poids corporel déterminée par la vole intraveineuse est, par exemple, de 154 mg pour le dérivé N° 1, de 89 mg pour le dérivé N° 2, de 184mg pour le dérivé N° 10, de 130 mg pour le dérivé N° 11, de 350mg pour le dérivé N° 12, de 65 mg pour le dérivé N° 18, de 90 mg pour le dérivé N° 22, de 96 mg pour le dérivé N° 24 et de 105 mg pour le dérivé N° 31.

Series [4] deals with rat. The series is described as follows: Localised carrageenan-induced oedema. It counts as in vivo. The settings on record: 100 mg/kg oral at -1 h, 0 h, +2.5 h. As to the method: Une solution de carragénine (0,1 ml), à 1 %, est injectée dans les fléchisseurs métatarsiens de la patte postérieure droite du rat au temps 0. Les animaux du lot traité reçoivent en outre, par la voie orale, 100 mg par kg du dérivé à tester respectivement 1 heure avant, en même temps que l'injection de l'agent phlogogène, puis 1 heure et 2 heures et demi après. Les mesures qui sont effectuées à l'aide du micromètre de ROGH au temps 0, 1 heure, 2 heures, 3 heures et 5 heures après l'administration de la carragénine permettent de déterminer, en fonction du temps, le pourcentage d'activité anti-inflammatoire, par comparaison avec le lot témoin.
For orientation: Carrageenan injected into the paw causes an acute inflammation.

A further series relates to souris. The series is described as follows: Potentiation of an infra-hypnotic dose of sodium pentobarbital. It counts as in vivo. The following applies: mouse, 100 mg/kg oral, 30 min before i.p. infra-hypnotic dose of sodium pentobarbital; control 0. As to the method:
Les composés de l'invention potentialisent de façon très nette l'action des hypnotiques. En effet, administrés à différents lots de souris par la voie orale, à la dose de 100 mg/ kg, trente minutes avant l'injection intrapéritonéale d'une dose infra-hypnotique de pentobarbital sodique, ils produisent par rapport aux animaux témoins non traités, une nette poten- tialisation de l'action du barbiturique.
En effet, le nombre de souris endormies, le temps moyen d'endormissement et la durée du sommeil sont nettement accrus dans les lots traités. Les résultats des composés les plus actifs sont rassemblés dans le Tableau I suivant.

The mark [5] stands for this setting: 2 h after ovalbumin injection, read-out: Pourcentage d'activité anti-inflammatoire 2ème heure.
[6] abbreviates: 3 h after ovalbumin injection, read-out: Pourcentage d'activité anti-inflammatoire 3ème heure.
Where [7] appears, read: 1 h after carrageenan, read-out: Pourcentage d'activité anti-inflammatoire 1ère heure.
Setting [8] is: 2 h after carrageenan, read-out: Pourcentage d'activité anti-inflammatoire 2ème heure.
[9] abbreviates: 3 h after carrageenan, read-out: Pourcentage d'activité anti-inflammatoire 3ème heure.
Setting [10] is: 5 h after carrageenan, read-out: Pourcentage d'activité anti-inflammatoire 5ème heure.

Take `CNC(=O)c1cc2sccc2cn1` [Dérivé 1, Méthylaminocarbonyl-6 thiéno [3,2-c] pyridine]: the “valeurs moyennes de l'intensité des crises” value in the series on rat [1] is 2,5. The inhibition in vivo at 100 mg/kg with rat [2] (setting [5]) came to 48%; with rat [2] (setting [6]), 56%; in the series with rat [4] (setting [7]) it was 35%; in the series on rat [4] (setting [8]), 42%; in the series on rat [4] (setting [9]), 46%; in the series on rat [4] (setting [10]), 47%. Also, in series [3], the LD50 at 24 h came to 154 mg/kg. Besides, the “Pourcentage d'animaux endormis” value in the series on souris stood at 70%.
Consider `O=C(c1cc2sccc2cn1)N1CCCC1` [Dérivé 10, (pyrrolidinyl-1)carbonyl-6 thiéno[3,2-c] pyridine], for which the inhibition in vivo at 100 mg/kg with rat [2] (setting [5]) came to 47%; in the series with rat [2] (setting [6]), 55%; with rat [4] (setting [7]), 37%; in the series on rat [4] (setting [8]), 42%; with rat [4] (setting [9]) it was 46%; in the series on rat [4] (setting [10]), 51%. Further, in series [3], the LD50 at 24 h worked out at 184 mg/kg. Also, the “Pourcentage d'animaux endormis” value in the series on souris came out at 90%.
On to `NC(=O)c1cc2sccc2cn1` [Dérivé 31, carbamoyl-6 thiéno [3,2-C] pyridine], for which the “valeurs moyennes de l'intensité des crises” value in the series with rat [1] is listed as 2,5. Also, the LD50 at 24 h in series [3] came out at 105 mg/kg.
Turning to `O=C(c1cc2sccc2cn1)N1CCCCC1` [Dérivé 11, Pipéridinocaxbonyl-6 thiéno [3,2-c] pyridine], the LD50 at 24 h in series [3] was found to be 130 mg/kg.
Same read-out and setting: the same measure for `CN(C)CCNC(=O)c1cc2sccc2cn1` [Dérivé 2, β -diméthylaminoéthylaminocarbonyl-6 thiéno [3,2-c] pyridine]: 89 mg/kg.
In the case of `O=C(NCc1ccncc1)c1cc2sccc2cn1` [Dérivé 22, (pyridyl-4 méthyl)aminocarbonyl-6 thiéno[3,2-c]pyridine], the inhibition in vivo at 100 mg/kg in the series with rat [2] (setting [5]) was determined as 51%; with rat [2] (setting [6]), 58%; in the series on rat [4] (setting [7]), 41%; in the series with rat [4] (setting [8]), 47%; in the series on rat [4] (setting [9]), 51%; in the series on rat [4] (setting [10]), 55%. The LD50 at 24 h in series [3] was 90 mg/kg. The “Pourcentage d'animaux endormis” value in the series on souris was 70%.
`CCN(CC)CCNC(=O)c1cc2sccc2cn1` [Dérivé 18, β-diéthylaminoéthylaminocarbonyl-6 thiéno [3,2-c] pyridine]: the inhibition in vivo at 100 mg/kg is 49% in the series with rat [2] (setting [5]); 58% in the series on rat [2] (setting [6]); 41% with rat [4] (setting [7]); 46% with rat [4] (setting [8]); 50% in the series on rat [4] (setting [9]); 55% with rat [4] (setting [10]). Also, the LD50 at 24 h in series [3] was 65 mg/kg. Besides, the “Pourcentage d'animaux endormis” value in the series with souris was determined as 80%.
